This note sets out measurements from article PMC12020424, “Identification and Validation of Cyclic Peptides with Mucin-Selective, Location-Specific Binding in the Gastrointestinal Tract” (ACS Nano, 2025).

Experiment [1] addresses T1, MUC5AC (Homo sapiens, UniProt P98088). The experiment can be described thus: Phage ELISA on MUC5AC. Format: binding. The conditions noted are these: phage clones displaying the peptide, 10^7 PFU/μL, MUC5AC-coated plate, anti-M13/HRP, TMB, 450 nm, blank subtracted, three wells; vs random library and insertless phage. The source says:
We next sought to validate the binding efficiency of these identified phage clones. We tested phage clones displaying peptides M2.1, M2.2, M2.3, and M2.4 for binding to MUC2, and phage clones displaying peptides M5.1, M5.2, M5.3, and M5.4 for binding to MUC5AC. We utilized a bacteriophage enzyme-linked immunosorbent assay to test the binding of the peptide hits to the specific target mucins, MUC2 and MUC5AC (Figure 2d). The spectrophotometer reported absorbance values at 450 nm. The intensity of the absorbance signal is proportional to the amount of peptide-mucin binding present in each sample. The negative controls (library samples and insertless samples) served as references for nonspecific binding.
First, mucin was coated onto the surface of a plastic plate overnight using the same process as that performed for the original phage display. The next morning, three wells of each phage clone were prepared, with each phage solution having a titer of 10^7 PFU/μL to ensure a fair comparison between the clones. […]
However, instead of eluting the bound phage, 100 μL of 1:2000 anti-M13/HRP mouse monoclonal antibody was added to each well, and the antibody was allowed to incubate with the wells for 30 min. […] The resulting solutions were analyzed by absorbance spectroscopy at a wavelength of 450 nm to determine the relative amount of phage present in each well.

Experiment [2] concerns the target T1, MUC5AC. The experiment is described as follows: Phage display (CX7C library) against MUC5AC, Sanger sequencing. Format: binding. Particulars: MUC5AC phage screening, third round of panning, 16 sequenced candidates. The protocol: For each mucin of interest, 5 μg of mucin protein was diluted in 150 μL of Tris-buffered saline (TBS) and added to 2 wells of a microtiter plate. The plate was left overnight in a humidified, sealed container with agitation at 50 rpm. After the overnight mucin coating, the solution was poured out, and 300 μL of blocking buffer was added to the wells for 1 h. After the 1 h waiting period, the blocking buffer was poured out, and the wells were washed three times with 300 μL of Tris-buffered saline with TBST (TBS + 0.1% (v/v) Tween-20) to remove nonspecific binding on the mucin layer coating. Next, 5 μL of the C7C library diluted with 95 μL of TBST was added to each blocked well and placed on shaker for 45 min, before pouring out the nonbinding phage and washing the plate ten times with TBST. A 0.2 M glycine-HCl elution buffer (pH 2.2, 100 μL) was added to each well and placed on a shaker for 20 min to release the mucin-layer binding peptides on the plate as unamplified eluate, with the pH neutralized by 30 μL of neutralization buffer (1 M Tris-HCl, pH 9).
E. coli liquid cultures were prepared by adding E. coli cells to 20 mL of LB media and placing them in shaking conditions at 37 °C and 250 rpm for 2 h and 45 min. The unamplified eluate (1 μL of which was saved for titering) was added to the E. coli cultures under the same conditions for 4 h and 45 min for amplification. […]

Bridge positions count the residues as written; N and C are the ends. Ends that are not written are not given here.

In the case of “CTDKASSSC (disulfide 1-9 (inferred)) [Peptide M5.1, CX7C cyclic peptide hit for MUC5AC]”, the “phage ELISA binding vs negative controls” value in experiment [1] is “significantly greater binding to MUC5AC than the random library and insertless phage”. In addition, the “% Prevalence” value in experiment [2] was 18.75%.
